Measured values published in patent publication US11090292B2, “Compositions and methods of use of an inappetance-controlling compound” (Aratana Therapeutics, Inc., priority 2012, dated 2021).

Tests used:
IGF-1 = test: Example 13: serum IGF-1; format: in vivo, cats with compromised kidney function; settings: 8 hours post administration; Group 1 IV Day 0, Group 2 SC Days 0 and 13
Procedure: (§1) The following study was undertaken to assess multiple points. First, the following experiments were conducted to determine if a formulation of capromorelin, when administered either intravenously or subcutaneously, can stimulate appetite in cats with compromised kidney function. Second, the following experiments were conducted to assess the pharmacokinetic profile of capromorelin in the serum of cats with compromised kidney function. Finally, the following experiments were conducted to determine if capromorelin accumulates in the serum after 14 days of treatment that is subcutaneously administered.
(§2) Sixteen cats with compromised kidney function were acclimatized for the following study. Animals assigned to Group 1 (n=6) received an intravenous administration of a capromorelin formulation (i.e., capromorelin in sterile water) at a dose of 0.75 mg/kg on Day 0 of the experiment. Animals assigned to Group 2 (n=6) received a subcutaneous administration of a capromorelin formulation (2.1% w/v capromorelin, 1% w/v benzyl alcohol, and citrate buffer) daily for 14 days at a dose of 2 mg/kg. Animals assigned to Group 3 (n=4) served as untreated controls. […] Diet consumption was also monitored on study days −7 until day 13 for the animals in Groups 2 and 3 only.

[1] = Example 9: clinical observations / toxicological responses; format: in vivo; settings: injection 0.75 or 2 mg/kg, oral 2 or 4 mg/kg, once daily
Procedure: (§3) During the seven day study period, on an at least once-daily basis, each of the cats was monitored for clinical observations, mortality, moribundity, body mass, acceptability/palatability, and food consumption. Serum samples were taken to measure capromorelin concentration, IGF-1 concentration, and cortisol concentration. Serum samples were taken on days 1 and 4 immediately prior to dosing (0 minutes) and 30, 60, 90, 120, 240, 360, and/or 480 minutes post dosing. Additional serum samples were taken at 8 AM on Day 7 of the study to assess long-term impact of the active treatments.

[2] = Example 1: capromorelin concentration in serum; format: in vivo
Procedure: (§4) A controlled, seven-day study was performed to assess the impact of different capromorelin-dosing regimens on the production of insulin-like growth factor 1 (hereinafter “IGF-1”), growth hormone (hereinafter “GH”), and cortisol. The different capromorelin-dosing regimens were also assessed for the impact on food intake and changes in body mass.
(§5) Eighteen adult non-naïve Beagle dogs (nine males and nine females) were divided into one of three treatment groups. Each of the three treatment groups included three males and three females. Group A, which was the control group, was dosed twice per day, via oral gavage, with a vehicle (deionized water alone) and was used as a baseline data point for comparison against the active treatment regimens. Group B comprised an active treatment group that received two treatments per day, via oral gavage, with a capromorelin-containing composition with a concentration of 3 mg/kg capromorelin per treatment. Finally, Group C comprised an active treatment group that received one treatment per day, via oral gavage, with a capromorelin-containing composition with a concentration of 6 mg/kg capromorelin per treatment.
(§6) During the ten day study period, on an at least once-daily basis, each of the dogs was monitored for clinical observations, mortality, morbidity, body mass, and food consumption. Serum samples were taken to measure capromorelin concentration, GH concentration, IGF-1 concentration, and cortisol concentration. Serum samples were taken on days 1, 2, 4, and 7 at −15 minutes (pre-dose), immediately prior to dosing (0 minutes) and 30, 45, 60, 90, 120, 240, 360, and/or 480 minutes post dosing. Additional blood samples were taken at 8 AM on Day 10 of the study to assess long-term impact of the active treatments.

[3] = Example 13 cat compromised kidney study: body weight and diet consumption; format: in vivo, cats with compromised kidney function; settings: subcutaneous 2 mg/kg daily for 14 days
Procedure: as §1, §2

[4] = Example 1 seven-day dosing regimen study: food consumption and body weight; format: in vivo, Beagle dogs
Procedure: as §4, §5, §6

[5] = Example 12: food consumption; format: in vivo, cats; settings: IV 0.75 mg/kg or oral 3 mg/kg, short treatment
Procedure: Similar to some of the other pharmacokinetic analyses conducted in dogs and cats, an additional pharmacokinetic study was conducted in cats to assess capromorelin formulations that allow sufficient drug to circulate to produce appetite stimulation and to define the capromorelin pharmacokinetic profile in cats. Briefly, twelve cats were randomized into Group 1 (six cats) and Group 2 (six cats). Group 1 received an intravenous formulation that included 0.75 mg/kg of capromorelin dissolved in sterile water and Group 2 received a previously tested formulation via oral gavage. Food consumption was determined daily for all cats. Specifically, animals were offered feed at approximately 11:00 AM, with the removal of feed at approximately 3:00 PM. Upon removal of feed, the amount consumed was calculated.

[6] = Example 1: clinical observations / toxicological responses; format: in vivo; settings: 3 mg/kg twice daily or 6 mg/kg once daily, 7 days
Procedure: as §6

[7] = Example 9 four-day cat dosing regimen study: food consumption and body weight; format: in vivo, cats; settings: for increase in body weight relative to baseline measurements: four days
Procedure: A four-day study was performed to further assess the pharmacokinetics of formulation 8 from Example 3 (i.e., the most “well-accepted” formulation) in cats. Moreover, the administration of formulation 8 was also analyzed to determine if administration of this formulation could induce sustained production of IGF-1 and relatively depressed, mitigated, or lower levels of cortisol. The different capromorelin-dosing regimens were also assessed for the impact on food intake and changes in body mass.
Twenty-four adult cats were divided into one of four treatment groups, with all four groups as active treatment groups. Each of the active treatment groups included 6 cats. The first group received a sterile injection of a capromorelin composition containing a 0.75 mg/kg concentration of capromorelin once per day during the four-day experiment. The second group received a once-daily sterile injection of a capromorelin composition at a concentration of 2 mg/kg. The third group received a once-daily dose of a capromorelin composition at a concentration of 2 mg/kg, via oral gavage. The fourth group received a once-daily dose of a capromorelin composition containing capromorelin at a concentration of 4 mg/kg, via oral gavage.
as §3

[8] = Days 1 and 7, 3 mg/kg twice daily or 6 mg/kg once daily oral gavage
[9] = oral gavage, once-daily 6 mg/kg or twice-daily 3 mg/kg, 7 days

SMILES: CN1N=C2CCN(C(=O)[C@@H](COCc3ccccc3)NC(=O)C(C)(C)N)C[C@@]2(Cc2ccccc2)C1=O.O=C(O)C(O)C(O)C(=O)O [capromorelin]
- serum concentration of IGF-1 as a result of treatment (IGF-1): increased in serum concentration of IGF-1
- toxicological responses [1]: no toxicological responses were noted
- serum capromorelin by eight hours after dosing (480 minutes) [2, 8]: decreased to near undetectable levels
- time after dosing at which serum capromorelin concentrations spike [2, 8]: approximately 0.5 h
- serum capromorelin concentration, 6 mg/kg dose relative to twice-daily 3 mg/kg dose ([2]; oral gavage): about 2.3 fold
- amount of food consumed, Group 2 versus untreated Group 3 [3]: no significant difference
- body weights of Group 2 versus untreated Group 3 [3]: no significant differences
- increase in weight over the seven day treatment period ([4]; male dogs, once-daily 6 mg/kg or twice-daily 3 mg/kg oral gavage): 4-5%
- food consumed relative to dogs receiving deionized water only [4, 9]: consumed more food
- weight gain relative to dogs receiving deionized water only [4, 9]: gained more weight
- observed food consumption [5]: did not reveal any significant increases in food consumption
- toxicological responses [6]: no toxicological responses were noted
- increase in body weight relative to baseline measurements ([7]; 0.75 mg/kg sterile injection once daily): 1.33%
- increase in body weight relative to baseline measurements ([7]; 2 mg/kg oral once daily): 0.70%
- increase in body weight relative to baseline measurements ([7]; 2 mg/kg sterile injection once daily): 2.37%
- increase in body weight relative to baseline measurements ([7]; 4 mg/kg oral once daily): 1.47%
- food consumed relative to prior days of the experiment ([7]; sterile injectable formulations (0.75, 2 mg/kg) or 4 mg/kg oral gavage, once daily): consumed more food on day 4
